For this assay, the target named is Purified human HSD1 (Homo sapiens, UniProt P28845). Kind of assay: In vitro inhibition of 11β-HSD1, enzyme assay (time-resolved fluorescence). To be noted: purified human HSD1, cortisone substrate, 37° C. for 30 min. In kind it is biochemical. Here is the method: Purified human HSD1 was diluted in 50 mM Tris-HCl, 100 mM NaCl, 0.1 mg/mL BSA, 0.02% Lubrol, 20 mM MgCl2, 10 mM glucose 6-phosphate, 0.4 mM NADPH, 60 U/mL glucose 6-phosphate dehydrogenase to a concentration of 1.5 μg/mL (Enzyme Solution). Cortisone (100 μM) in DMSO was diluted to 1 μM with 50 mM Tris-HCl, 100 mM NaCl (Substrate Solution). Test compounds (40 μM) in DMSO were diluted 3 fold in series in DMSO and further diluted 20 fold in Substrate Solution. Enzyme Solution (10 μL/well) was added into 384 well microtiter plates followed by diluted compound solutions (10 μL/well) and mixed well. Samples were then incubated at 37° C. for 30 min. EDTA/biotin-cortisol solution (10 μL/well) in 28 mM EDTA, 100 nM biotin-cortisol, 50 mM Tris-HCl, 100 mM NaCl was then added followed by 5 μL/well of anti-cortisol antibody (3.2 μg/mL) in 50 mM Tris-HCl, 100 mM NaCl, 0.1 mg/mL BSA and the solution was incubated at 37° C. for 30 min. Five μL per well of Eu-conjugated anti-mouse IgG (16 nM) and APC-conjugated streptavidin (160 nM) in 50 mM Tris-HCl, 100 mM NaCl, 0.1 mg/mL BSA was added and the solution was incubated at room temperature for 2 hours. Signals were quantitated by reading time-resolved fluorescence on a Victor 5 reader (Wallace).
Percent inhibition of HSD1 activity by an agent at various concentrations was calculated by the following formula: % Inhibition=100*[1−(Fs−Fb)/(Ft−Fb)], wherein: • Fs is the fluorescence signal of the sample which included the agent, • Fb is the fluorescence signal in the absence of HSD1 and agent, • Ft is the fluorescence signal in the presence of HSD1, but no agent.
The inhibitory activities of test compounds were determined by the IC50s, or the concentration of compound that gave 50% inhibition.

Chain of Purified human HSD1 (P28845 whole entry): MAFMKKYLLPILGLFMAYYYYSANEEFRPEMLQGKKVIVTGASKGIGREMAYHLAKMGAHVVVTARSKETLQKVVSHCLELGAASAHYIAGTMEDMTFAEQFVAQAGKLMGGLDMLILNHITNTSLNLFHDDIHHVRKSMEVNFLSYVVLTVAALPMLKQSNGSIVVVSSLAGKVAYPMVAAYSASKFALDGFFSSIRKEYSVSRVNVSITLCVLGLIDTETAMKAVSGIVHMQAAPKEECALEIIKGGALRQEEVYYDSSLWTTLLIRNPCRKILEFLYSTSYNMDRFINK

Usually IC50 stands for the concentration that gives 50% inhibition. `O=C(c1csc(-c2ccccc2Cl)n1)N1CCCCCCC1` [Example 10, Azocan-1-yl-[2-(2-chloro-phenyl)-thiazol-4-yl]-methanone] gave an IC50 of 50 nM. This counts as double-digit nanomolar. The result for `COc1ccccc1-c1nc(C(=O)N2CCCCC2C)cs1` (stereo not drawn) [Example 119, [2-(2-Methoxy-phenyl)-thiazol-4-yl]-(2-methyl-piperidin-1-yl)-methanone] reads 730 nM; that for `O=C(c1csc(-c2ccc(-c3ccccc3)cc2)n1)N1CCCC2CCCCC21` (stereo not drawn) [Example 180, (2-Biphenyl-4-yl-thiazol-4-yl)-(octahydro-quinolin-1-yl)-methanone], 930 nM; that for `C[C@@H]1CCC[C@H](C)N1C(=O)c1csc(-c2ccccc2Cl)n1` [Example 115, [2-(2-Chloro-phenyl)-thiazol-4-yl]-((2S,6R)-2,6-dimethyl-piperidin-1-yl)-methanone], 340 nM. Regarding `CC(=O)c1ccccc1-c1nc(C(=O)NC2CCCCCC2)cs1` [Example 144, 2-(2-Acetyl-phenyl)-thiazole-4-carboxylic acid cycloheptyl amide], the midpoint of inhibition, the IC50, lay at 32 nM.

The compound `O=C(c1csc(-c2cccc(Cl)c2Cl)n1)N1CCCC[C@H]1c1ccccn1` [Example 96, [2-(2,3-Dichloro-phenyl)-thiazol-4-yl]-(S)-3,4,5,6-tetrahydro-2H-[2,2′]bipyridinyl-1-yl-methanone] had an IC50 of 40 nM. The compound `O=C(N[C@H]1CC[C@H](O)CC1)c1csc(-c2ccccc2Cl)n1` [Example 124, 2-(2-Chloro-phenyl)-thiazole-4-carboxylic acid (4-hydroxy-cyclohexyl)-amide] displayed an IC50 of 1900 nM.

Turning to `O=C(c1csc(-c2cccc(OCc3ccccc3)c2)n1)N1CCCC2CCCCC21` (stereo not drawn) [Example 61, [2-(3-Benzyloxy-phenyl)-thiazol-4-yl]-(octahydro-quinolin-1-yl)-methanone], the IC50 came out at 457 nM.

As for `Cc1ccc(-c2nc(C(=O)N3CC(C)CC(C)C3)cs2)cc1` (stereo not drawn) [Example 33, (3,5-Dimethyl-piperidin-1-yl)-(2-p-tolyl-thiazol-4-yl)-methanone], the IC50 is 365 nM.

With `COc1cccc(Cl)c1-c1nc(C(=O)N2CCCC3CCCCC32)cs1` (stereo not drawn) [Example 117, [2-(2-Chloro-6-methoxy-phenyl)-thiazol-4-yl]-(octahydro-quinolin-1-yl)-methanone], half-maximal inhibition (IC50) was put at 1500 nM. In the case of `COc1ccc(-c2nc(C(=O)N3CCCC4CCCCC43)cs2)cc1` (stereo not drawn) [Example 17, [2-(4-Methoxy-phenyl)-thiazol-4-yl]-(octahydro-quinolin-1-yl)-methanone] it was 373 nM. For the compound `CCOc1cc(Cl)ccc1-c1nc(C(=O)N2CCCC3CCCCC32)cs1` (stereo not drawn) [Example 46, [2-(4-Chloro-2-ethoxy-phenyl)-thiazol-4-yl]-(octahydro-quinolin-1-yl)-methanone], the half-inhibitory concentration (IC50) amounted to 102 nM.

(Values after patent US7645773B2, “Thiazoles as inhibitors of 11β-hydroxysteroid dehydrogenase” (Hoffmann-La Roche Inc., priority 2006, dated 2010).)
